Data taken from patent publication US6288028A, “BPC peptide salts with organo-protective activity, the process for their preparation and their use in therapy” (priority 1997, dated 2001).
Where no end group is shown, it is not given here.

Tests used:
[1] = system: gastric lesions (96% ethanol); assay: Ethanol gastric lesions, NO-system; assay type: in vivo, rats; conditions: for effect on ethanol gastric lesions, agent given alone: NaBPC157 10 μg or 10 ng/kg i.p. with 96% ethanol i.g., 1 hour, L-NAME 5 mg/kg i.v., L-arginine 200 mg/kg i.v. 5 minutes before
Description: Some of the effects of NaBPC157 (10 μg or 10 ng/kg) were challenged in rats, such as the salutary activity against gastric lesions and NaBPC157's activity with respect to blood pressure maintenance. The lesions were obtained by using a 1 hour ethanol treatment (96%, i.g. (intragastrically)). NaBPC157 was simultaneously applied (i.p. (intraperitoneally)). In the blood pressure maintenance experiment, NaBPC157 was given intravenously (i.v.).
Also studied was the combined application of N^G -nitro-L-arginine methylester (L-NAME) (5 mg/kg i.v.), a competitive inhibitor of endothelium nitric oxide (NO)-generation and the NO-precursor L-arginine (200 mg/kg i.v.) (D-arginine was ineffective). In the gastric lesion assays, the NO-agents were given 5 minutes before the ethanol injury and the treatment with NaBPC157.

[2] = system: Pulmonary Hypertension Syndrome (PHS) and tissue lesions; assay: Pulmonary Hypertension Syndrome, acute and chronic toxicity; assay type: in vivo, chicks; conditions: for tissue or organ damage (pathohistology): acute and chronic toxicity
Description: The present experiments describe the effects of nitric oxide (NO) agonists and antagonists and the influence of NaBPC157 on the development of Pulmonary Hypertension Syndrome (PHS) and tissue lesions in chicks. Experiments investigating acute toxicity were conducted. These included single dose applications of saline (1 ml i.p.), NaBPC157 (10 μg/kg b.w.), L-NAME (NO antagonist/doses 50, 100, 150 mg/kg b.w.) and L-arginine (NO agonist/100 mg/kg b.w./with their combination (L-NAME+NaBPC157, L-NAME+L-arginine)). Pathohistological examinations of the spleen, heart, liver and lungs and hematological analyses were conducted. Furthermore, chronic toxicity experiments were conducted. The animals were treated daily during five weeks with L-NAME (10 mg/kg b.w.), L-arginine (100 mg/kg b.w.), NaBPC157 (10 μg/kg b.w.) and their combinations (L-NAME+NaBPC157, L-NAME+L-arginine) intraperitoneally. Seven animals from each group including controls (saline 1 ml i.p.) were sacrificed every week.

[3] = system: restraint stress lesions; assay: 48 hour-restraint stress ulcer model; assay type: in vivo, rats
Description: (§1) The effects of NaBPC157 (10 μg or 10 ng/kg i.p., i.g.) were investigated in rats in comparison with several reference standards in several experimental ulcer models (48 hour-restraint stress, subcutaneous cysteamine, intragastrical 96% ethanol ulcer tests, NSAIAs-lesions, DNFB (Dinitrofluorhenzene), reflux esophagitis following esophagojejunal termino-lateral anastomosis) (pre-/co-/post-treatment).

[4] = system: DNFB-intestinal lesions; assay: DNFB-intestinal lesions; design: species or system rats; conditions: rat, in vivo
Description: as §1

[5] = system: mobility in chronically stressed rats; assay: Chronic unpredictable stress, open field-immobility test; assay type: in vivo, rat; conditions: NaBPC157 10 μg, 10 ng; imipramine 30 mg; once daily
From the text: Various antidepressants have antiulcer activity and the models currently used in ulcer and depression research share a considerable degree of similarity. Therefore, the possibility that depression disorders could be effectively influenced by a primary antiulcer agent with cyto-/organo-protective activity such as NaBPC157 was investigated in two rat depression assays: the forced swimming test (a Porsolt's procedure) and the chronic unpredictable stress method (after five days of unpredictable stress protocol, once-daily drug application during the stress procedure and an open field-immobility test assessment at fourth and sixth days of medication).

[6] = system: portal blood pressure, organ lesions; assay: Chronic alcohol intoxication; assay type: in vivo, Male Albino Wistar rats; conditions: alcohol for three months; NaBPC157 10 μg, 10 ng/kg; propranolol, ranitidine 10 mg/kg b.w.
Description: The effects of NaBPC157 on chronic alcohol intoxication were examined. Male Albino Wistar rats were used for these experiments. The rats were drinking either commercial whiskey or ethanol (10-20% water solution) for three months. The application of NaBPC157 (10 μg, 10 ng/kg b.w.), propranolol (10 mg/kg b.w.), and ranitidine (10 mg/kg b.w.) (control rats received an equivolume of saline 5.0 ml/kg), either intragastrically or intraperitoneally, was conducted either prophylactically (10 days before alcohol initiation) or as a co-treatment together with alcohol or therapeutically (starting at the end of a two month period, i.e. during the last month of the experiment).

[7] = system: reflux esophagitis; assay: Reflux esophagitis after esophagojejunal anastomosis; design: species or system rats; conditions: rat, in vivo
Description: as §1

[8] = system: amphetamine stereotyped behavior; assay: Amphetamine stereotypes and excitability; assay type: in vivo, rats; conditions: no amphetamine
Description: The effects of NaBPC157 on the dopamine agonist amphetamine (10 mg/kg i.p.) stereotypes and on excitability were studied. NaBPC157 was applied as a prophylactic co-treatment or therapeutic salutary regimen (10 μg or 10 ng/kg i.p.). The stereotyped behaviour and excitability was induced in rats.

[9] = Toxicity observations; assay type: in vivo; conditions: high dosages (e.g. g/kg b.w., i.p.)
[10] = system: diazepam tolerance and withdrawal; assay: Diazepam tolerance and physical dependence, isoniazid latencies; design: species or system mice; conditions: mouse, in vivo
Description: In tolerance assays forty-two hours after the conditioning regimen, shorter preconvulsive latencies than that in healthy mice following an isoniazid treatment (800 mg/kg i.p.) were observed if diazepam (5.0 mg/kg i.p.) was given again to mice previously conditioned with diazepam alone. […] In this group at six hour intervals, unlike in diazepam conditioned mice, isoniazid preconvulsive latencies were still longer than in corresponding controls.

[11] = system: cysteamine ulcer; assay: Subcutaneous cysteamine ulcer test; assay type: in vivo, rats; conditions: reference peptides
[12] = system: ethanol ulcer; assay: Intragastrical 96% ethanol ulcer test; assay type: in vivo, rats; conditions: reference peptides; related to treatment conditions

Compound: N=C(N)NCCC[C@@H](N)C(=O)O [D-arginine]
- effect on ethanol gastric lesions, agent given alone [1]: ineffective

Compound: COC(=O)[C@@H](N)CCCNC(=N)N[N+](=O)[O-] [L-NAME, N^G -nitro-L-arginine methylester]
- effect on ethanol gastric lesions, agent given alone [1]: had no effect
- induction of PHS ([2]; L-NAME): caused PHS
- tissue or organ damage (pathohistology) [2]: caused severe tissue damage
- hematological analyses ([2]; in vivo): significant hemoglobin and leukocyte number decreases

Compound: N=C(N)NCCC[C@H](N)C(=O)O [L-arginine]
- antiulcer activity after L-NAME ([1]; L-NAME 5 mg/kg i.v. 5 minutes before ethanol): completely abolished
- effect on ethanol gastric lesions, agent given alone [1]: antiulcer effect
- tissue or organ damage (pathohistology) [2]: provoked predominantly congestion, edema and hemorrhages in all organs
- inhibition of the effects of L-NAME ([2]; in vivo): successfully inhibited
- prevention of L-NAME-caused PHS ([2]; simultaneous application, L-arginine 100 mg/kg, NaBPC157 10 μg/kg b.w.): prevented

Compound: NC12CC3CC(CC(C3)C1)C2 [amatadine]
- effect in restraint stress [3]: ineffective

Compound: CC(C)C[C@H]1C(=O)N2CCC[C@H]2[C@]2(O)O[C@](NC(=O)[C@@H]3C=C4c5cccc6[nH]c(Br)c(c56)C[C@H]4N(C)C3)(C(C)C)C(=O)N12 [bromocriptine]
- effect in restraint stress [3]: ineffective
- effect on DNFB-intestinal lesions [4]: only partially effective

Compound: CN/C(=N/CCSCc1nc[nH]c1C)NC#N [cimetidine]
- effect in restraint stress [3]: ineffective

Compound: NC(N)=Nc1nc(CSCCC(N)=NS(N)(=O)=O)cs1 [famotidine]
- effect in restraint stress [3]: ineffective

Compound: CN(C)CCCN1c2ccccc2CCc2ccccc21 [imipramine]
- mobility in chronic unpredictable stress [5]: failure of imipramine activity

Compound: CC(C)NCC(O)COc1cccc2ccccc12 (stereo not drawn) [propranolol]
- portal blood pressure [6]: markedly prevented and/or decreased

Compound: CNC(=C[N+](=O)[O-])NCCSCc1ccc(CN(C)C)o1 [ranitidine]
- portal blood pressure [6]: even more increased portal pressure values
- effect on reflux esophagitis [7]: only partially effective

Compound: C[C@H](N)C(=O)NCC(=O)N[C@H]1CSSC[C@@H](C(=O)O)NC(=O)[C@H](CO)NC(=O)[C@H]([C@@H](C)O)NC(=O)[C@H](Cc2ccccc2)NC(=O)[C@H]([C@@H](C)O)NC(=O)[C@H](CCCCN)NC(=O)[C@H](Cc2c[nH]c3ccccc23)NC(=O)[C@H](Cc2ccccc2)NC(=O)[C@H](Cc2ccccc2)NC(=O)[C@H](CC(N)=O)NC(=O)[C@H](CCCCN)NC1=O [somatostatin]
- effect in restraint stress [3]: ineffective

Compound: GEPPPGKPADDAGLV [NaBPC157, Monosodium Salt of BPC157]
- gross behavior, agent alone [8]: does not affect gross behavior or induce stereotypes
- influence on basal parameters [9]: No influence on different basal parameters
- toxicity at high dosages [9]: no toxicity
- tissue or organ damage (pathohistology) [2]: did not cause any tissue or organ damage
- tolerance effect of the agent itself [10]: does not produce any tolerance effect

Compound: NPY
- protection, cysteamine [11]: dose-dependent protection
- effect, ethanol [12]: partial positive effect

Compound: secretin
- protection, cysteamine [11]: dose-dependent protection
- effect, ethanol [12]: partial positive effect

Compound: sucralfate
- effect on reflux esophagitis [7]: only partially effective
